Holding throughout (assay type): ADME
Data set [1] addresses T1, Broad substrate specificity ATP-binding cassette transporter ABCG2 (Homo sapiens, UniProt Q9UNQ0).
T1 sequence (Q9UNQ0 whole entry): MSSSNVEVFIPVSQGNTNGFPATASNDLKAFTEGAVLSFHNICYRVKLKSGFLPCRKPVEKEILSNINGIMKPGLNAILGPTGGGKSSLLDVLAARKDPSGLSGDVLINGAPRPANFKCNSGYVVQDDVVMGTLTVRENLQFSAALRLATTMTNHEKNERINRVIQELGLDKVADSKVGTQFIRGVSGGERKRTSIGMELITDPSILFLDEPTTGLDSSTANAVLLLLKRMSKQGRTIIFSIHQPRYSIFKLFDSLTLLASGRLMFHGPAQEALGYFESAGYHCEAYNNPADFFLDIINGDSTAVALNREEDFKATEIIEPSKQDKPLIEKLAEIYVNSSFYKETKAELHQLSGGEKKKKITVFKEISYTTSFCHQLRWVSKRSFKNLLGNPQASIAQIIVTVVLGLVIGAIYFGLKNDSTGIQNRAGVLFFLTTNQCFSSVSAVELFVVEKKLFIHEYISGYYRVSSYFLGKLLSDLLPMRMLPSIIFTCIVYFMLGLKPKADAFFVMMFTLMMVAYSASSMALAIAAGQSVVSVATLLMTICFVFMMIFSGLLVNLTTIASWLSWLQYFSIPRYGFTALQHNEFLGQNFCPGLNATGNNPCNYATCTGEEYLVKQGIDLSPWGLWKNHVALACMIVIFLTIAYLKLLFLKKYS
Briefly: Substrates of transporters of clinical importance in the absorption and disposition of drugs, BCRP.

The target of data set [2] is ATP-binding cassette sub-family C member 2 (Homo sapiens, UniProt Q92887). Briefly: Substrates of transporters of clinical importance in the absorption and disposition of drugs, MRP2.
Sequence of ATP-binding cassette sub-family C member 2 (Q92887 whole entry): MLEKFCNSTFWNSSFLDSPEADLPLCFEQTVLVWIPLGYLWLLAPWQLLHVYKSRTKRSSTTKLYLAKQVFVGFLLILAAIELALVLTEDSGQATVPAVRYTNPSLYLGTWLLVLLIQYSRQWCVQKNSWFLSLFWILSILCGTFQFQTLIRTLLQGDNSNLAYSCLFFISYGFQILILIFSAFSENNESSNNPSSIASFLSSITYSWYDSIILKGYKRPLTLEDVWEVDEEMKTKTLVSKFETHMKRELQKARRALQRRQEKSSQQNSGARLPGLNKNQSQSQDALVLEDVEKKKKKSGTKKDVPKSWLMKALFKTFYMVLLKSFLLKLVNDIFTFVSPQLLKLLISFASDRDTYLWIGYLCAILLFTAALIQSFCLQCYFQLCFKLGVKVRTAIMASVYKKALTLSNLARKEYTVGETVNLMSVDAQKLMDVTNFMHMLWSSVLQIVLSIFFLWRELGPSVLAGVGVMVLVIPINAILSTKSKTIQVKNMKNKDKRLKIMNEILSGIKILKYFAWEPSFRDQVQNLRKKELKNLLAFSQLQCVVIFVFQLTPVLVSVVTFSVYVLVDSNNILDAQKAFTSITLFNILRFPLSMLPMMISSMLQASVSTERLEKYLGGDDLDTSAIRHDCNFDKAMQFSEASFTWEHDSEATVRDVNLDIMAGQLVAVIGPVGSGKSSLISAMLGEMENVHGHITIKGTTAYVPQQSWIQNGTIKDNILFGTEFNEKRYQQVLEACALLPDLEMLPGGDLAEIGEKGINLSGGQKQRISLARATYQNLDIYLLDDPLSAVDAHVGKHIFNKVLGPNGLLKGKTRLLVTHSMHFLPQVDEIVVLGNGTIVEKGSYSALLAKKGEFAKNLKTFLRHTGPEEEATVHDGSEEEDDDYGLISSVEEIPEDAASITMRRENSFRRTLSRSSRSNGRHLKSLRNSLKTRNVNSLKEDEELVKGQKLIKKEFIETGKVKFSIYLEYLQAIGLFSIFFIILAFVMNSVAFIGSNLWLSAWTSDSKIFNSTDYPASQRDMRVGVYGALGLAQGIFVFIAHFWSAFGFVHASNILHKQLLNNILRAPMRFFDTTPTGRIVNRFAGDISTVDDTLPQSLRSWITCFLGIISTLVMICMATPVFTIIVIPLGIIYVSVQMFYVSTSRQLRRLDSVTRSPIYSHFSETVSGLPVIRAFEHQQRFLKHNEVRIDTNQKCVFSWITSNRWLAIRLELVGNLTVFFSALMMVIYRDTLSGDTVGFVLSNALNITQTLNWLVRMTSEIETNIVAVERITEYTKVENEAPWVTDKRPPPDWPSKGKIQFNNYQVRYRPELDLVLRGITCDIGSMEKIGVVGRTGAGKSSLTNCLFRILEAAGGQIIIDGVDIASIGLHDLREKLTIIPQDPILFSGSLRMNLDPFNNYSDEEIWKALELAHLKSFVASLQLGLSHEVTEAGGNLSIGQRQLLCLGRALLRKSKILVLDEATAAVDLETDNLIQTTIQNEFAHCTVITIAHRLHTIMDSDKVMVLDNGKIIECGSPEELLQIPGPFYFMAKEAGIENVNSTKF
Data set [3] addresses T1, Broad substrate specificity ATP-binding cassette transporter ABCG2. Briefly: Inhibitors of transporters of clinical importance in the absorption and disposition of drugs, BCRP.
Data set [4] deals with T2, Solute carrier organic anion transporter family member 1B1 (Homo sapiens, UniProt Q9Y6L6).
T2 sequence (Q9Y6L6 whole entry): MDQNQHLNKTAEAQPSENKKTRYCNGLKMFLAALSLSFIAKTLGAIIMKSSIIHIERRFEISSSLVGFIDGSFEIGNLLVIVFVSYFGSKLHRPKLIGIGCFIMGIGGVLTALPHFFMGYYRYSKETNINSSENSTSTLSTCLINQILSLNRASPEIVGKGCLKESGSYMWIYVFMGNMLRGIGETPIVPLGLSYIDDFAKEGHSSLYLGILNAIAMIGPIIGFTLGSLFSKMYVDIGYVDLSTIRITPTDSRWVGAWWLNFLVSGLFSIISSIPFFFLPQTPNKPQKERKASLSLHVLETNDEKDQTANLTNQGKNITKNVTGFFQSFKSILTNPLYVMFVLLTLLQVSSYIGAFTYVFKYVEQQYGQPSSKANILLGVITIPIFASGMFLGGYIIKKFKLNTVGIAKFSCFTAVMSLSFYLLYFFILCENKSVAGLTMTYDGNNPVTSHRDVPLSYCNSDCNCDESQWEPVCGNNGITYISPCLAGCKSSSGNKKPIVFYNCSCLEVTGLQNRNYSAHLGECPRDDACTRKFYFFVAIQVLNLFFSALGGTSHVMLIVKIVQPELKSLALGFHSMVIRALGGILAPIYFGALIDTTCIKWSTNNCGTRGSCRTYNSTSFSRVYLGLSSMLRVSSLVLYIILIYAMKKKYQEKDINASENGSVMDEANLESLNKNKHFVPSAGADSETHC
Briefly: Inhibitors of transporters of clinical importance in the absorption and disposition of drugs, OATP1B1.

Data set [5] addresses T3, Solute carrier organic anion transporter family member 1A2 (Homo sapiens, UniProt P46721).
T3 sequence (P46721 whole entry): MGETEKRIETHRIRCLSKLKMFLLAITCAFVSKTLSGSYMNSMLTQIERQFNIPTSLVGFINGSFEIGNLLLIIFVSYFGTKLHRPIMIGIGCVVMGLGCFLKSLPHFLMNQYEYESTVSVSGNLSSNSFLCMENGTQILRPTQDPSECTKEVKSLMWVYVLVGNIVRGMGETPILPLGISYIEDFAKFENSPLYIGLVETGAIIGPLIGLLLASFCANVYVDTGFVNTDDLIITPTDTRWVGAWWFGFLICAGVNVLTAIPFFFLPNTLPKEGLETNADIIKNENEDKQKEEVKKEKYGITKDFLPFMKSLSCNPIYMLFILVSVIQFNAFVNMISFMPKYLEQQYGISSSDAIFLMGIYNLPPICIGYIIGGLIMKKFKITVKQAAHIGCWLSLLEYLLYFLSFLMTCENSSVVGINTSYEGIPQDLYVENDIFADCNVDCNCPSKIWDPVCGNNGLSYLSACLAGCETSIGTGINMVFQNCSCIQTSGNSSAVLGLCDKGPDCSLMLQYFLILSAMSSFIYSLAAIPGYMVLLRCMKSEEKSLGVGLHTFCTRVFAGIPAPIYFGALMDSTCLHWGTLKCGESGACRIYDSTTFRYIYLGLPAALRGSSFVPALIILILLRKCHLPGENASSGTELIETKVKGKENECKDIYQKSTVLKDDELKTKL
Briefly: Inhibitors of transporters of clinical importance in the absorption and disposition of drugs, OATP1A2.

In data set [6] the target is T2, Solute carrier organic anion transporter family member 1B1. Briefly: Substrates of transporters of clinical importance in the absorption and disposition of drugs, OATP1B1.
Data set [7] has as its target T4, Solute carrier organic anion transporter family member 1B3 (Homo sapiens, UniProt Q9NPD5).
T4 sequence (Q9NPD5 whole entry): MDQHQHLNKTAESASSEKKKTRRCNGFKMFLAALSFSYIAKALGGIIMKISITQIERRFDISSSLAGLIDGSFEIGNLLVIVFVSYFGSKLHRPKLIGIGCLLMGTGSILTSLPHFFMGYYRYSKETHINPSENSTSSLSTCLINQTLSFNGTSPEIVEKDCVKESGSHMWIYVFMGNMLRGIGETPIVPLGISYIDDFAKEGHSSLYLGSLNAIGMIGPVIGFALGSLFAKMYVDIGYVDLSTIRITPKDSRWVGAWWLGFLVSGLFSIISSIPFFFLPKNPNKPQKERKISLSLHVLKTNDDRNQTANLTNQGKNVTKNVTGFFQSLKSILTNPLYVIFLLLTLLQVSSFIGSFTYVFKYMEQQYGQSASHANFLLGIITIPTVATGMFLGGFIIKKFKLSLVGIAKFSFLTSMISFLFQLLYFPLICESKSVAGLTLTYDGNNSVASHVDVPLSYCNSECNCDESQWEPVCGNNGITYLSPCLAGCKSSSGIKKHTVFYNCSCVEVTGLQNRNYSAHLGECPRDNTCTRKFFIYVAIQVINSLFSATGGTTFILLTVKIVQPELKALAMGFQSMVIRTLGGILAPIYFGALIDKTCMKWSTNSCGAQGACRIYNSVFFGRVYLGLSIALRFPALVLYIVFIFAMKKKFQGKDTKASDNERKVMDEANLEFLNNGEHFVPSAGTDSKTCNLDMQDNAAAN
Briefly: Substrates of transporters of clinical importance in the absorption and disposition of drugs, OATP1B3.

Data set [8] addresses ATP-binding cassette sub-family C member 3 (Homo sapiens, UniProt O15438). Briefly: Substrates of transporters of clinical importance in the absorption and disposition of drugs, MPR3.
The target in data set [9] is T3, Solute carrier organic anion transporter family member 1A2. The data set is described as follows: Substrates of transporters of clinical importance in the absorption and disposition of drugs, OATP1A2.
The target in data set [10] is T5, Solute carrier organic anion transporter family member 2B1 (Homo sapiens, UniProt O94956).
T5 sequence (O94956 whole entry): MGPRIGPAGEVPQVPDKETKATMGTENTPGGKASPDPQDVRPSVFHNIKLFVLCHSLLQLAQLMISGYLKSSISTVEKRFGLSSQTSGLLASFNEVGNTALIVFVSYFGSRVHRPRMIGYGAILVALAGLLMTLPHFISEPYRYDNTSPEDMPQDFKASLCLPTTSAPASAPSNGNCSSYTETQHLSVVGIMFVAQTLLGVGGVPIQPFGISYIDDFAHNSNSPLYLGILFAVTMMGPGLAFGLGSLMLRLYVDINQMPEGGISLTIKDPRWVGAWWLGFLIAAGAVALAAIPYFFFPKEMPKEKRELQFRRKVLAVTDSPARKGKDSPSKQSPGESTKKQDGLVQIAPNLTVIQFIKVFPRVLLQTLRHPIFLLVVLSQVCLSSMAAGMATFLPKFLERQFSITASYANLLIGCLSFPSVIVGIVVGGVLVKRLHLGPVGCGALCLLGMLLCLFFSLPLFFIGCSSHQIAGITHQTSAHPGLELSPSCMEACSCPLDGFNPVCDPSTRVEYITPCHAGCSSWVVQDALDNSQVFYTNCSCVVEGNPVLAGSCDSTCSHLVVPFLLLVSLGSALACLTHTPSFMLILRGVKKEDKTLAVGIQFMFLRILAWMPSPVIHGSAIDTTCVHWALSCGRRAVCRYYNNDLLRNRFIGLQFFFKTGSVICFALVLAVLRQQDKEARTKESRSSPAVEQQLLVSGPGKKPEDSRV
The data set is described as follows: Substrates of transporters of clinical importance in the absorption and disposition of drugs, OATP2B1.

The target of data set [11] is T6, ATP-binding cassette sub-family C member 4 (Homo sapiens, UniProt O15439).
T6 sequence (O15439 whole entry): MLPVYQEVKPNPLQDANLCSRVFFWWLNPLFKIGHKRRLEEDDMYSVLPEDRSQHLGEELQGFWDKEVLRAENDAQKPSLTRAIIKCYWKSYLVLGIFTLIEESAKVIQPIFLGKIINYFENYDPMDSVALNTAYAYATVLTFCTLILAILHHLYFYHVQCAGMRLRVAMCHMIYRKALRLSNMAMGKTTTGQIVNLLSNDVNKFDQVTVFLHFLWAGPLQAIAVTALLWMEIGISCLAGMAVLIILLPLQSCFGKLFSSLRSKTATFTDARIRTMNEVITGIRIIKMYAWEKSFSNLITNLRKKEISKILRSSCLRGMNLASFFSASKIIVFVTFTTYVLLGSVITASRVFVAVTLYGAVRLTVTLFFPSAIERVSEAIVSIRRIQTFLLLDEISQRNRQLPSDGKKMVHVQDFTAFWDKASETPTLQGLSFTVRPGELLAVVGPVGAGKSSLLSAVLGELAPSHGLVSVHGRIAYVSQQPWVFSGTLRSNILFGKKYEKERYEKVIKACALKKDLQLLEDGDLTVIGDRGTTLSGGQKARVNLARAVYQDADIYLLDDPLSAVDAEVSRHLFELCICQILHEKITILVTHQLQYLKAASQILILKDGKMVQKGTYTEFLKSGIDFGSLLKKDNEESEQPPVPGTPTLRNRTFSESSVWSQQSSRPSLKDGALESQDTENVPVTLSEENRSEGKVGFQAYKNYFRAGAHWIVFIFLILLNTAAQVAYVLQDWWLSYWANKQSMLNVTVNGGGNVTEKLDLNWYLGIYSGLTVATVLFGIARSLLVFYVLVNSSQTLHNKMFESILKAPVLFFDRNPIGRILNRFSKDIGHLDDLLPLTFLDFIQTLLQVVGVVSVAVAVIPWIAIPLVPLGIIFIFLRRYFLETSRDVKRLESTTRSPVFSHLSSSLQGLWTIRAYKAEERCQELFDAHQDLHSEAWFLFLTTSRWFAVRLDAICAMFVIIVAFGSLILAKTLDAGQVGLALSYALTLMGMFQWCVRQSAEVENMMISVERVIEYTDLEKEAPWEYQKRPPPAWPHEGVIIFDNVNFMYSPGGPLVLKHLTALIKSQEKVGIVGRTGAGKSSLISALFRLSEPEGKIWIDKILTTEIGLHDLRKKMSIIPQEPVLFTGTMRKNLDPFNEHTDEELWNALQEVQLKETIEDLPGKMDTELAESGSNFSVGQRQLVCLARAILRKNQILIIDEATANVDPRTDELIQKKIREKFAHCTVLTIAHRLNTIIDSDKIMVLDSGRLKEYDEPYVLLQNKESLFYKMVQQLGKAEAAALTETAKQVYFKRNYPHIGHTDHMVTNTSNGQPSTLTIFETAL
The data set is described as follows: Substrates of transporters of clinical importance in the absorption and disposition of drugs, MRP4.

The structures appear in SMILES notation.

Sequence of ATP-binding cassette sub-family C member 3 (O15438 whole entry): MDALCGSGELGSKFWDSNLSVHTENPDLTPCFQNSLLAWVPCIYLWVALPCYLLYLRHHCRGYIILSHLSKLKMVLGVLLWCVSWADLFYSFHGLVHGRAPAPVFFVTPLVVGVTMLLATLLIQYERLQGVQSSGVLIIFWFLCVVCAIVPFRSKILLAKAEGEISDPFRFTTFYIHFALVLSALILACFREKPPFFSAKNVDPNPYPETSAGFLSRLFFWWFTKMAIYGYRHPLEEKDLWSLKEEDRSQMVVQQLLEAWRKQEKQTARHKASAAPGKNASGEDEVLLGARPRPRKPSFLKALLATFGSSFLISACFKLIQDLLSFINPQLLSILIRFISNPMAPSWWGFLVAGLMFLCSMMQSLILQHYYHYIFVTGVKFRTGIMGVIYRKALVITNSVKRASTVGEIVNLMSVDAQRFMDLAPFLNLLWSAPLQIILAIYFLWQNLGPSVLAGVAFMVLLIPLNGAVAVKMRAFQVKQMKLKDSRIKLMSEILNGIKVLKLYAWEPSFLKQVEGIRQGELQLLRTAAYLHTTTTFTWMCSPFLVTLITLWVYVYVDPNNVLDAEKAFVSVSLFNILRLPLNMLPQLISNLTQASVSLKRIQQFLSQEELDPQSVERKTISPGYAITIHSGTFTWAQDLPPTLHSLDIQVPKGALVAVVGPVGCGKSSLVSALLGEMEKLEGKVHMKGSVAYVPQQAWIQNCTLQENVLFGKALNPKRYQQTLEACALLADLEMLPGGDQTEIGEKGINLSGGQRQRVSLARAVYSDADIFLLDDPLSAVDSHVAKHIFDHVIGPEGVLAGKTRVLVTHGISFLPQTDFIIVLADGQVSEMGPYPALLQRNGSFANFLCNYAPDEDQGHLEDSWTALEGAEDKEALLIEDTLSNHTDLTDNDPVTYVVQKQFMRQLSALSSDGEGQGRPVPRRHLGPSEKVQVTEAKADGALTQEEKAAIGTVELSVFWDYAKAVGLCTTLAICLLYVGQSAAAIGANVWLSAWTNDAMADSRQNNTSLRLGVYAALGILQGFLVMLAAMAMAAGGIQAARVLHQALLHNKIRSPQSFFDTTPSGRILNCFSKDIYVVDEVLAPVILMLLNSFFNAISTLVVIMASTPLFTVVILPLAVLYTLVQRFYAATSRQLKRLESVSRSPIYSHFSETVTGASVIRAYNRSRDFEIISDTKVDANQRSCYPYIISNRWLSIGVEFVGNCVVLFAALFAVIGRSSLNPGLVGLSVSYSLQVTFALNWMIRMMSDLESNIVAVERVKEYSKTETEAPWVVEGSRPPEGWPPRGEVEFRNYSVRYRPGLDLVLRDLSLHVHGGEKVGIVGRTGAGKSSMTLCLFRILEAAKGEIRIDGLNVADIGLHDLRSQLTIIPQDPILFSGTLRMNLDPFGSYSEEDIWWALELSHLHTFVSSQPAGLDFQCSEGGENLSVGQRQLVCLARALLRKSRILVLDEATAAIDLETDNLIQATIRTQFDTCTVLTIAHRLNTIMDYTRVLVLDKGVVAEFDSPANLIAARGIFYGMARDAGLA

For the compound `O=C1c2c(O)ccc(O)c2C(=O)c2c(NCCNCCO)ccc(NCCNCCO)c21` [MITOXANTRONE], the Activity entry in data set [1] and in [2] was “transporter substrate” each time.

`C[C@]12CC[C@@H]3c4ccc(O)cc4CC[C@H]3[C@@H]1CCC2=O` [ESTRONE]: the Activity entry in [3] is on record as “transporter inhibitor”.

`C[C@]12CC[C@@H]3c4ccc(O)cc4CC[C@H]3[C@@H]1CC[C@@H]2O` [ESTRADIOL]: the Activity entry in data set [3] is “transporter inhibitor”.

Turning to `CC(C)(C)NC(=O)[C@@H]1C[C@@H]2CCCC[C@@H]2CN1C[C@@H](O)[C@H](Cc1ccccc1)NC(=O)[C@H](CC(N)=O)NC(=O)c1ccc2ccccc2n1`, the Activity result in data set [4] and in [5] was “transporter inhibitor” throughout.

On to `C[C@]12CC[C@@H]3c4ccc(O)cc4CC[C@H]3[C@@H]1CC[C@@H]2O[C@@H]1O[C@H](C(=O)O)[C@@H](O)[C@H](O)[C@H]1O` [ESTRADIOL 17B GLUCURONIDE], for which the Activity entry in data set [6], in data set [7] and in data set [8] was “transporter substrate” throughout.

For `CC(C)(C(=O)O)c1ccc(C(O)CCCN2CCC(C(O)(c3ccccc3)c3ccccc3)CC2)cc1` (stereo not given) [FEXOFENADINE], the Activity result in [7], in data set [9], in [10] and in data set [8] was “transporter substrate” each time.

In the case of `CC[C@@]1(O)C(=O)OCc2c1cc1n(c2=O)Cc2cc3c(CN(C)C)c(O)ccc3nc2-1` [TOPOTECAN], the Activity entry in data set [1] and in data set [11] was “transporter substrate” throughout.

As for `CN(Cc1cnc2nc(N)nc(N)c2n1)c1ccc(C(=O)N[C@@H](CCC(=O)O)C(=O)O)cc1` [METHOTREXATE], the Activity result in data set [9], in data set [1], in data set [2], in [8] and in data set [11] was “transporter substrate” throughout.

The values are drawn from ChEMBL document CHEMBL1743141, “Membrane transporters in drug development” (Nat Rev Drug Discov, 2010).
